Experimental data reported in patent US4960790A, “Derivatives of taxol, pharmaceutical compositions thereof and methods for the preparation thereof” (University of Kansas, priority 1989, dated 1990).
Where a name gives a salt, the structure may show the parent alone. Read-outs that look alike come from different tables or passages of the source.

What was measured:
Solubility = type: physicochemical; details: read-out: Solubility
[1] = Chemical stability in buffer or water; type: physicochemical
Description: The compound was subjected to stability studies according to the following procedures.
(§1) Stabilities of derivatives at various pHs were studied at 25° and 37°. The plasma studies were conducted at 37° in rat and human plasma. Human plasma was obtained from Watkins Hospital and rat plasma was obtained from the Animal Care Unit of the University of Kansas. The derivative concentration used was around 20-25 μg/ml. A stock solution of the compound was prepared at 0.8-1.0 mg/mL and was added to plasma to give the desired concentration (20-25 μg/mL). One hundred microliter samples were removed and was quenched with 250 uL. acetonitrile and centrifuged to precipitate the plasma proteins. The degradation kinetics were studied by HPLC plotting peak area vs. time. The t90 and t50 were calculated. Both chemical and plasma studies were followed by high performance liquid chromatography using a RP-8 column (15 cm) and a precolumn (5 cm). The detector was set at 227 nm. The mobile phase consisted of 0.02M acetate (pH 5): acetonitrile 50:50 or 35:65 and the flow rate ranged from 1-1.5 mL/min or the same solvents containing 0.001M tetrabutylammoniumydrogensulphate and a flow rate of 1 mL/min.
The identity of this peak was further confirmed by the degradation studies of the new derivatives. Thus, 2'(DMG) taxol was incubated with water at 37° and the product was concentrated and purified by preparative TLC. The product after purification was analyzed by HPLC and spectroscopic methods.

[2] = Plasma stability, rat plasma; type: in vitro ADME; details: rat plasma (20 μg/mL), 37° C.
Description: as §1

[3] = Plasma stability, dog plasma; type: in vitro ADME; details: dog plasma (20 μg/mL), 37° C.
[4] = Plasma stability, human plasma; type: in vitro ADME; details: 37° C.
Description: as §1, with “The derivative concentration used was around 20-25 μg/ml. A stock solution of the compound was prepared at 0.8-1.0 mg/mL and was added to plasma to give the desired concentration (20-25 μg/mL).” left out

microtubule assembly = test: In vitro microtubule assembly kinetics; type: biochemical; details: rank order
Description: (A) In vitro Microtubule Assembly Kinetics Studies
The microtubule assembly study was conducted using both 2' and 7-derivatives according to the in vitro procedures disclosed, for example, in Mellado et al., Biochemical and Biophysical Research Communications, Vol. 124, No. 2 (1984), pp. 329-336; Magri et al., J. Org. Chem., 51, 797-802 (1986); and Parness et al., Biochemical and Biophysical Research Communications, Vol. 105, No. 3, pp. 1082-1091 (1982).

B-16 melanoma cells = test: In vitro B16 melanoma cell proliferation; type: cell-based; details: rank order
Description: These studies were conducted according to standard procedures as described in Donoso and Himes, Cancer Biochem. Biophysics, vol. 7, (1984), p. 133.

[5] = tested on: human mammary carcinoma MX-1 xenograft; test: Subrenal capsule human mammary carcinoma MX-1 xenograft in mice; details: for % T/C: Q4D Days 1, 5, 9; for % T/C / # OF ANMLS ALIVE CALC/TOTAL / Average tumor WEIGHT CHANGE (DELTA) / Average tumor weight, FINAL: Day 11; for ANML BODY WT DIFF (test minus control) / TEST BODY WT CHG / # OF ANMLS ALIVE CALC/TOTAL / Average tumor WEIGHT CHANGE (DELTA) / Average tumor weight, FINAL: Q4D; for ANML BODY WT DIFF (test minus control) / TEST BODY WT CHG: Day 1 to 11
From the text: The procedures followed are those described at pages 23-24 of NIH Publication No. 84-2635, In Vivo Cancer Model (February 1984).
In the procedure, test groups of mice (6 mice per test group) and control groups of 12 mice per group are utilized. A tumor fragment (human mammary carcinoma MX-1 xenograft), is implanted under the membranous covering of the kidney of each mouse.
Day 0: Anesthetize animals. Record body weight (Weigh Day 1). Implant tumor, measure and record. Randomize animals after they recover from the anesthetic. Run bacterial cultures. Determine solubilities of test agent. Record deaths daily.
Day 1: Check cultures. Discard experiment if contaminated. Prepare test materials. Initiate test agent injections (in the nape of the neck) based on individual body weight. Treatment is Q4D on Days 1, 5, and 9. Prepare test agent fresh on each injection day and administer based on individual body weight for that day.
Days 5 and 9: Prepare test agent fresh on each injection day and administer based on individual body weight for that day.
Day 11: End and evaluate experiment. Record body weights (Weigh Day 2). Measure tumor in OMU's (Ocular Micrometer Unit--10 OMU's=1 mm) and record.
The parameter measured is mean tumor weight change (delta) based on length and width measurements in millimeters. Mean animal body weights are computed for Day 1 and Day 11, compute T/C for all test groups with>65% survivors on Day 11. An excessive body weight change difference (test minus control) may also be used in evaluating toxicity. The dimensions are measured and recorded in Ocular Micrometer Units (OMU). A computer is utilized for the following:
(1) Converts OMU's to millimeters (mm).
(2) Calculates tumor weights (mgs) from tumor dimensions (mm×mm) following the formula for the volume of a prolate ellipsoid: [formula] (3) Calculates the change (delta) in mean tumor weight for each group of mice:
Change in Mean Tumor Weight=Mean Tumor WeightFINAL -Mean Tumor WeightINITIAL.
(4) Calculates the change (delta) in mean tumor weight for test (T) and control (C) groups.
(5) Calculates T/C% for all test groups with>65% survivors on Final Evaluation Day: [formula]

## CC(=O)O[C@H]1C(=O)[C@@]2(C)[C@H]([C@H](OC(=O)c3ccccc3)[C@]3(O)C[C@H](OC(=O)[C@H](OC(=O)CN(C)C)[C@@H](NC(=O)c4ccccc4)c4ccccc4)C(C)=C1C3(C)C)[C@]1(OC(C)=O)CO[C@@H]1C[C@@H]2O [Compound 2, Methanesulphonic acid salt of 2'-(N,N-dimethylglycyl)taxol]
Solubility; Clear
  solubility: 2000 µg/mL
Solubility; Slightly Hazy
  solubility: 15000 µg/mL
[1]; 0.02 M Acetate (0.1 mg/mL), pH 3.5, 25° C.
  half-life: 96.2 h
[1]; 0.02 M Acetate (0.1 mg/mL), pH 4.5, 25° C.
  half-life: 55.4 h
[1]; water (2 mg/mL), pH 3.8, 37° C.
  half-life: 89.8 h
[2]
  half-life: 0.0508 h
[3]
  half-life: 2.03 h
[4]; human plasma (20 μg/mL)
  half-life: 3.31 h

## CC(=O)O[C@H]1C(=O)[C@@]2(C)[C@H]([C@H](OC(=O)c3ccccc3)[C@]3(O)C[C@H](OC(=O)[C@H](OC(=O)CN(C)C)[C@@H](NC(=O)c4ccccc4)c4ccccc4)C(C)=C1C3(C)C)[C@]1(OC(C)=O)CO[C@@H]1C[C@@H]2O [Compound 1, 2'-(N,N-dimethylglycyl)taxol]
[1]; incubated with water at 37°
  Identity of degradation product: the product is taxol
Microtubule assembly
  Ability to assemble microtubules (order): taxol >7-(N,N-dimethylglycyl)taxol(11)>2'(N,N-diethylaminopropionyl)taxol(8)>2'(N,N-dimethylglycyl)taxol(2)
B-16 melanoma cells
  Order of effectiveness in B-16 melanoma cell proliferation study: taxol>2'-(N,N-dimethylglycyl)taxol>2'-(N,N-diethylaminopropionyl)taxol>7-(N,N-dimethylglycyl)taxol
[5]; Table 1, 5.90 mg/kg
  % T/C: -78%
  ANML BODY WT DIFF (test minus control): -.5
  TEST BODY WT CHG: -2.2
  # OF ANMLS ALIVE CALC/TOTAL: 6/6
  Average tumor WEIGHT CHANGE (DELTA): -.48 MGS
  Average tumor weight, FINAL: .13 MGS
[5]; Table 1, 8.90 mg/kg
  % T/C: -53%
  ANML BODY WT DIFF (test minus control): .8
  TEST BODY WT CHG: -.9
  # OF ANMLS ALIVE CALC/TOTAL: 5/6
  Average tumor WEIGHT CHANGE (DELTA): -.41 MGS
  Average tumor weight, FINAL: .36 MGS
[5]; Table 1, 13.30 mg/kg
  ANML BODY WT DIFF (test minus control): -.6
  TEST BODY WT CHG: -2.3
  # OF ANMLS ALIVE CALC/TOTAL: 4/6
  Average tumor WEIGHT CHANGE (DELTA): -.64 MGS
  Average tumor weight, FINAL: .00 MGS
[5]; Table 1, 20.00 mg/kg
  ANML BODY WT DIFF (test minus control): -.5
  TEST BODY WT CHG: -2.2
  # OF ANMLS ALIVE CALC/TOTAL: 4/6
  Average tumor WEIGHT CHANGE (DELTA): -.56 MGS
  Average tumor weight, FINAL: .00 MGS
[5]; Table 1, 30.00 mg/kg
  % T/C: TOX
  TEST BODY WT CHG: -3.8
  # OF ANMLS ALIVE CALC/TOTAL: 1/6
  Average tumor weight, FINAL: .00 MGS

## CC(=O)O[C@H]1C(=O)[C@]2(C)[C@@H](OC(=O)CN(C)C)C[C@H]3OC[C@@]3(OC(C)=O)[C@H]2[C@H](OC(=O)c2ccccc2)[C@]2(O)C[C@H](OC(=O)[C@H](O)[C@@H](NC(=O)c3ccccc3)c3ccccc3)C(C)=C1C2(C)C [Compound 8, Methanesulphonic acid salt of 7-(dimethylglycyl)taxol]
Solubility
  solubility: > 2000 µg/mL
[1]; 0.02 M Acetate, pH 3.5, 25° C.
  half-life: 3400 h
[1]; 0.02 M Phosphate, pH 7.4, 25° C.
  half-life: 33.8 h
[1]; 0.02 M acetate, pH 4.5, 25° C.
  half-life: 1720 h
[2]
  half-life: 17.3 h
[4]; human plasma (10 μg/mL)
  half-life: 24.4 h
[4]; human plasma (20 μg/mL)
  half-life: 27.7 h
